These results are taken from patent publication US11412737B2, “Mixtures of beflubutamid or optically enriched forms thereof with a second herbicide” (FMC Corporation, priority 2016, dated 2022).

Common to all, as to test: pre-emergence test, weed control
One assay has as its system Wild oat (AVEFA). In kind it is in vivo, Avena fatua. Conditions: pre-emergent, 28 DAT, (+)-BFL >95% e.e., rate g ai/ha by row: r6 62.5, r7 125, r8 62.5, r9 125, r10 222, r11 445, r12 22.5, r13 45, r14 62.5+62.5, r15 125+62.5, r16 62.5+125, r17 125+125, r18 62.5+222, r19 125+222, r20 62.5+445, r21 125+445, r22 62.5+22.5, r23 125+22.5, r24 62.5+45, r25 125+45. The protocol: (§1) Test compositions containing the test compounds were diluted with water to provide the appropriate test rate concentrations.
(§2) For pre-emergence testing, four disposable fiber flats (6 inch by 10 inch) for each rate of application of each herbicide solution were filled with top soil, to which seeds of each species were planted in furrows made by a template pressed on the top of the soil. The furrows were covered with soil after planting the seed and were watered well before application of the test compounds.
(§3) Fiber flats designated for treatment were placed in a spray chamber having a static platform and a movable sprayer and the height of the spray nozzle was 10.5 inches above the soil level. Once the sprayer was calibrated using water for spray volume of 30 gallons per acre, flats were sprayed with sprayer at a speed to receive a coverage equivalent of 30 gallons per acre. The application rates are those shown in the Tables below for the individual herbicidal solutions and the herbicide compositions of this invention. The pre-emergence flats were immediately placed in the greenhouse and watered lightly after treatment. Thereafter they were regularly watered and fertilized for the duration of the test.
(§4) The control of weeds was evaluated in each experimental test at 21 for wheat and 28 days after treatment (DAT) for all species. Data were analyzed using Minitab software at 95% confidence interval. The results, shown as an average of the replications, were compared with results observed in untreated control flats in the same tests. Percent control was determined by a method similar to the 0 to 100 rating system disclosed in “Research Methods in Weed Science,” 2nd ed., B. Truelove, Ed.; Southern Weed Science Society; Auburn University, Auburn, Ala., 1977. The rating system is as follows in Table 1.

The next assay deals with Blackgrass (ALOMY). In kind it is in vivo. Conditions: pre-emergent, 28 DAT, (+)-BFL >95% e.e., rate g ai/ha by row: r6 62.5, r7 125, r8 62.5, r9 125, r10 222, r11 445, r12 22.5, r13 45, r14 62.5+62.5, r15 125+62.5, r16 62.5+125, r17 125+125, r18 62.5+222, r19 125+222, r20 62.5+445, r21 125+445, r22 62.5+22.5, r23 125+22.5, r24 62.5+45, r25 125+45. As to the method: as §1, §2, §3, §4

The next assay has as its system Yellow foxtail (SETLU). In kind it is in vivo. Conditions: pre-emergent, 28 DAT, (+)-BFL >95% e.e., rate g ai/ha by row: r6 62.5, r7 125, r8 62.5, r9 125, r10 222, r11 445, r12 22.5, r13 45, r14 62.5+62.5, r15 125+62.5, r16 62.5+125, r17 125+125, r18 62.5+222, r19 125+222, r20 62.5+445, r21 125+445, r22 62.5+22.5, r23 125+22.5, r24 62.5+45, r25 125+45. As to the method:
as §1, §2, §3, §4

The subject of assay [1] is Common lambsquarters (CHEAL). In kind it is in vivo, Chenopodium album. Particulars: pre-emergent. The protocol: as §1, §2, §3, §4
The test system of a further assay is Italian ryegrass (LOLMU). In kind it is in vivo, Lolium perenne. multiflorum. Particulars: pre-emergent, 28 DAT, (+)-BFL >95% e.e.; rate g ai/ha by row: r6 62.5, r7 125, r8 62.5, r9 125, r10 222, r11 445, r12 22.5, r13 45, r14 62.5+62.5, r15 125+62.5, r16 62.5+125, r17 125+125, r18 62.5+222, r19 125+222, r20 62.5+445, r21 125+445, r22 62.5+22.5, r23 125+22.5, r24 62.5+45, r25 125+45. As to the method:
as §1, §2
Fiber flats designated for treatment were placed in a spray chamber having a static platform and a movable sprayer and the height of the spray nozzle was 10.5 inches above the soil level. Once the sprayer was calibrated using water for spray volume of 30 gallons per acre, flats were sprayed with sprayer at a speed to receive a coverage equivalent of 30 gallons per acre. […]
The control of weeds was evaluated in each experimental test at 21 for wheat and 28 days after treatment (DAT) for all species. Data were analyzed using Minitab software at 95% confidence interval. […] Percent control was determined by a method similar to the 0 to 100 rating system disclosed in “Research Methods in Weed Science,” 2nd ed., B. Truelove, Ed.; Southern Weed Science Society; Auburn University, Auburn, Ala., 1977. […]

A further assay concerns Green foxtail (SETVI). In kind it is in vivo, Setaria viridis. Particulars: pre-emergent, 28 DAT, (+)-BFL >95% e.e., rate g ai/ha by row: r6 62.5, r7 125, r8 62.5, r9 125, r10 222, r11 445, r12 22.5, r13 45, r14 62.5+62.5, r15 125+62.5, r16 62.5+125, r17 125+125, r18 62.5+222, r19 125+222, r20 62.5+445, r21 125+445, r22 62.5+22.5, r23 125+22.5, r24 62.5+45, r25 125+45. The protocol:
as §1, §2, §3, §4

Consider `CC[C@@H](Oc1ccc(F)c(C(F)(F)F)c1)C(=O)NCc1ccccc1` [(+)-BFL], for which the entries for the “percentage of weed control, AVEFA” value in the assay on Wild oat (AVEFA) (62.5 g ai/ha) and in the assay on Wild oat (AVEFA) (125 g ai/ha) were 0% and 1%, respectively. Besides, the “percentage of weed control, ALOMY” value turned out to be 2% in the assay on Blackgrass (ALOMY) (62.5 g ai/ha) and 5% in the assay with Blackgrass (ALOMY) (125 g ai/ha). Besides, the “percentage of weed control, SETLU” value in the assay with Yellow foxtail (SETLU) (62.5 g ai/ha) worked out at 0%; in the assay on Yellow foxtail (SETLU) (125 g ai/ha), 5%. Further, the “weed control of common lambsquarters (CHEAL)” value in assay [1] (applied alone, 28 DAT (Table 17)) was “low level weed control”. For the same compound, the “percentage of weed control, CHEAL” value in assay [1] (28 DAT, (+)-BFL >95% e.e., rate g ai/ha by row: r6 62.5, r7 125, r8 62.5, r9 125, r10 222, r11 445, r12 22.5, r13 45, r14 62.5+62.5, r15 125+62.5, r16 62.5+125, r17 125+125, r18 62.5+222, r19 125+222, r20 62.5+445, r21 125+445, r22 62.5+22.5, r23 125+22.5, r24 62.5+45, r25 125+45) was determined as 37%. Moreover, in the assay with Italian ryegrass (LOLMU), the “percentage of weed control, LOLMU” value came out at 1%. For the same compound, the “percentage of weed control, SETVI” value with Green foxtail (SETVI) (62.5 g ai/ha) is reported as 7%; with Green foxtail (SETVI) (125 g ai/ha), 8%.
